Results as given in ChEMBL document CHEMBL5608113, “Targeting of CAF-induced therapy resistance in CRC organoid-stroma co-cultures” (2024).

What was measured:
Type in all cases: functional, Homo sapiens
Details in all cases: Homo sapiens, read-out: Cell Viability; for viability at 10 µM: Concentration 10 uM; for viability at 1 µM: Concentration 1 uM
Colon cancer organoid [1] = assay: Targeting of F14 CAF-induced therapy resistance in O23 CRC organoid-stroma co-culture. Cell viability is reported with SN-38.
Colon cancer organoid [2] = assay: Targeting of F14 CAF-induced therapy resistance in O23 CRC organoid-stroma co-culture. Cell viability is reported without Gefitinib.
Colon cancer organoid [3] = assay: Targeting of F14 CAF-induced therapy resistance in O14 CRC organoid-stroma co-culture. Cell viability is reported with Gefitinib.
Colon cancer organoid [4] = assay: Targeting of F14 CAF-induced therapy resistance in O23 CRC organoid-stroma co-culture. Cell viability is reported with Gefitinib.
Colon cancer organoid [5] = assay: Targeting of F14 CAF-induced therapy resistance in O14 CRC organoid-stroma co-culture. Cell viability is reported without Gefitinib.

Row | SMILES | viability at 10 µM (Colon cancer organoid [1]) [%] | viability at 10 µM (Colon cancer organoid [2]) [%] | viability at 10 µM (Colon cancer organoid [3]) [%] | viability at 10 µM (Colon cancer organoid [4]) [%] | viability at 10 µM (Colon cancer organoid [5]) [%] | viability at 1 µM (Colon cancer organoid [1]) [%] | viability at 1 µM (Colon cancer organoid [2]) [%] | viability at 1 µM (Colon cancer organoid [3]) [%] | viability at 1 µM (Colon cancer organoid [4]) [%] | viability at 1 µM (Colon cancer organoid [5]) [%]
1 | CCOC(=O)CCNc1cc(N2CCc3ccccc3CC2)nc(-c2ccccn2)n1 | 121 | 155 | 59.5 | 59.2 | 93.3 | – | – | – | – | –
2 | Cc1ccccc1Oc1cc(-n2c(=O)cc(C(F)(F)F)[nH]c2=O)c2ccccc2c1Cl [BAY-069] | 51.3 | 116 | 40.6 | 56.6 | 167 | – | – | – | – | –
3 | O=C(NNS(=O)(=O)c1ccccc1F)c1cc(F)cc(-c2ccccn2)c1 [WM-1119] | 57.2 | 121 | 19.4 | 40.5 | 41 | – | – | – | – | –
4 | CC1(C)C(N)=Nc2cc(OCCCN3Cc4ccc(OCCc5cn(CC(=O)N6CCC(CCN7CCCC7)CC6)nn5)cc4C3)c(OCC3CC3)cc21 | 7.1 | 11.8 | 68.9 | 9.03 | 111 | – | – | – | – | –
5 | Cc1cc(CN)cc(C)c1-c1ncn(C)c1-c1ccnc2cc(F)ccc12 | 86.8 | 122 | 63.2 | 53.8 | 90.5 | – | – | – | – | –
6 | O=C(O)[C@@H]1[C@@H](Cn2nnc3ccccc3c2=O)CC[C@H]1C(=O)c1ccc(OCCC2CCOCC2)cc1 [BAY-694] | 78.7 | 146 | 56 | 53 | 102 | – | – | – | – | –
7 | COc1cc(C(=O)O)ncc1C#Cc1ccccc1NS(=O)(=O)c1cccc2c(N(C)C)ccnc12 [MSC-0516] | 79.4 | 131 | 45.9 | 47.7 | 117 | – | – | – | – | –
8 | CCCCNNC(=O)c1ccc(Br)cc1 | 75 | 151 | 44.9 | 53.8 | 85.9 | – | – | – | – | –
9 | Clc1cc2c(NC3CCCC3)nnc(-c3ccncc3)c2cc1Cl | 114 | 142 | 65.8 | 72.9 | 91.2 | – | – | – | – | –
10 | Cc1cc(-n2nc(Cc3cc(F)cc(C(F)(F)F)c3)nc2C)ccc1C(N)=O [TP-024] | 81 | 153 | 49.8 | 79 | 110 | – | – | – | – | –
11 | O=C(Nc1ccc(Oc2ccc(F)cc2)cc1)N1CCc2ncccc2[C@H]1c1ccc(F)cc1 [BAY-897] | – | – | – | – | – | 61.9 | 111 | 32.3 | 47.5 | 80
12 | O=C(O)c1ccc(-c2c[nH]c3ncc(-c4ccccc4)cc23)cc1C1CCCC1 [GSK-650394] | 82.6 | 136 | 65 | 93.5 | 104 | – | – | – | – | –
13 | C=CC(=O)Nc1ccc2[nH]c(=O)n(C3CCN(Cc4ccc(-c5nc6cc[nH]c(=O)c6cc5-c5ccccc5)cc4)CC3)c2c1 [Borussertib] | 10.6 | 9.17 | 14.3 | 7.88 | 28.5 | – | – | – | – | –
14 | CN([C@@H]1CCc2c(CC(=O)O)c3ccccc3n2C1)S(=O)(=O)c1ccc(F)cc1 [MK-7246] | 76.2 | 79.7 | 43.4 | 46.3 | 88.6 | – | – | – | – | –
15 | CCCOc1ccn2c(C(C)=O)cc(-c3ccccc3S(C)(=O)=O)c2c1 | 98.8 | 113 | 59.1 | 65.2 | 111 | – | – | – | – | –
16 | O=C(N[C@H]1CCCCC/C=C\C2C[C@@]2(C(=O)O)NC(=O)[C@@H]2C[C@@H](Oc3ccncc3)CN2C1=O)OC1CCCC1 (stereo not given in full) [BI 1675] | 89.7 | 136 | 62 | 51 | 102 | – | – | – | – | –
17 | O[C@]1(C(F)(F)F)CCCC[C@H]1Nc1ccc(F)cc1 [BAY-390] | – | – | – | – | – | 51 | 153 | 34 | 64.2 | 92.1
18 | CCN(CCO)CCCOc1ccc2c(Nc3cc(CC(=O)Nc4cccc(F)c4)[nH]n3)ncnc2c1 [DEFOSBARASERTIB] | 28.3 | 62.1 | 3.88 | 19.2 | 9.69 | – | – | – | – | –
19 | COc1ccccc1-c1cc(N2CCN(C(=O)OC(C)(C)C)CC2)c(N)nn1 | 35.8 | 49.4 | 53.4 | 37.8 | 101 | – | – | – | – | –
